Source: patent publication US20240132513A1, “BENZAZEPINE DERIVATIVES, COMPOSITIONS, AND METHODS FOR TREATING COGNITIVE IMPAIRMENT” (AGENEBIO, INC., priority 2022, published 2024)
Like-named read-outs stand apart in the source and are kept apart here.

Columns and labels:
GABAA R (α5β2γ2) = molecular target: T1, GABAA R (α5β2γ2) (Homo sapiens, UniProt P18507+P31644); experiment: Positive allosteric modulator activity: potentiation of EC20 GABA current in oocytes; format: cell-based
T1 construct: expressed in transfected cells
Protocol: On day 1, 1 ng/32 nL of GABAA α5β2γ2 cDNA was injected into one oocyte. Test starts on day 2. The cDNA injected to the oocytes was a mix of alpha, beta and gamma, their ratio is 1:1:10 (by weight) and the total weight of the mixed 3 subunits to be injected in one oocyte was 1 ng in 32 nl volume. The injected oocytes can also be tested on day 3. In such case, the cDNA amount injected to the oocytes should be reduced by 20%.
Compounds of the present disclosure were tested using the following procedures.
8 oocytes were placed in 8 chambers of OpusXpress and superfused with Modified Barth's Saline (MBS) at 3 mL/min. Glass electrodes back-filled with 3M KCl (0.5-3 megaohms) were used. Membrane potential of oocytes was voltage-clamped at −60 mV. • 2).
Control Test (Diazepam or Methyl 3,5-Diphenylpyridazine-4-Carboxylate) • 1). New oocytes was used to run new test. • 2). […] Oocytes were washed with MBS for 5-10 min. • 4). […] Itest was divided by IGABA to obtain potentiation (%).
Test Compounds at Multiple Doses • 1). Repeat the above steps 1), 2) and 3) in the control test. • 2). […] Divide Itest by IGABA to obtain potentiation (%). • 3). Discard all tested oocytes, new oocytes were used and the above steps 1) and 2) were repeated to test second concentration of the same compound. Each oocyte was used for only one concentration test for a single test compound. The steps were repeated for other test compounds.

α5β3γ2 GABAA R = α5β3γ2 GABAA R (Homo sapiens, UniProt P18507+P31644); experiment: Binding activity on GABAA R: inhibition of [3H]Ro15-1788 binding, α5 containing receptor
In short: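 Membranes from dexamethasone-induced (0.5 μM, 1 day) Ltk cells stably expressing α5β3γ2 receptors, 0.2 mg/ml protein, incubated with [3H]Ro15-1788 for 1 h at 4 °C in 50 mM KH2PO4/1 mM EDTA/0.2 M KCl, pH 7.4. Nonspecific binding with 10 μM diazepam; bound ligand by GF/B filtration and scintillation counting, triplicates.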

[1] = read-out: GABA α5 Functional Data: potentiation
[2] = ranges of the column heads, [3H]Ro15-1788, Ltk cell membranes
[3] = read-out: GABA α5 Functional Data: potentiation, @ 100 nM, EC20 GABA, ranges of the column heads

Sequence of α5β3γ2 GABAA R (P31644 32-462): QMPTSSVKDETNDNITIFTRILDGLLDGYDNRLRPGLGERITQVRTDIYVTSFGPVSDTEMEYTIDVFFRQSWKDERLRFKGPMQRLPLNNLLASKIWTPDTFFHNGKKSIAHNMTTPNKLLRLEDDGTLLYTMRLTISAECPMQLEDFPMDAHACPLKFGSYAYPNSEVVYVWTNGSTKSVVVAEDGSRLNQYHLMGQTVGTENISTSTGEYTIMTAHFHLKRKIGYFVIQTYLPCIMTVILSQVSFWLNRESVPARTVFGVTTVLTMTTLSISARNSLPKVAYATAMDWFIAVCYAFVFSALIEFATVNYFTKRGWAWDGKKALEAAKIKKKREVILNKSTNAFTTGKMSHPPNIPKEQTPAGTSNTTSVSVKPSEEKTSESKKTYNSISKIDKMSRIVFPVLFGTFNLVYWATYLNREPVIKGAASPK
Sequence of α5β3γ2 GABAA R (P28472 26-473 partner): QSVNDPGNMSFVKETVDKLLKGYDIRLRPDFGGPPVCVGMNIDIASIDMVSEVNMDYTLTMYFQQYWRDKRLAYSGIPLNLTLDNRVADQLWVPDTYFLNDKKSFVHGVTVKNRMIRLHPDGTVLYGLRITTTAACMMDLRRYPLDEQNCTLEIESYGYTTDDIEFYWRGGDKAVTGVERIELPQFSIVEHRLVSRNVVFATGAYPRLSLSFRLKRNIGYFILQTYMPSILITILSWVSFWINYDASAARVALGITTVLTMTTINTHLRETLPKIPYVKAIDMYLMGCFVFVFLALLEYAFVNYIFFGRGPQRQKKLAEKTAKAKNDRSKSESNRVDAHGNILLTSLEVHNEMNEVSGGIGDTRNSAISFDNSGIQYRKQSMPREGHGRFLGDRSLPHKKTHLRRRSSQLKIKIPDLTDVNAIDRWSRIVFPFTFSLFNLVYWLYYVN
Sequence of α5β3γ2 GABAA R (P18507 40-475): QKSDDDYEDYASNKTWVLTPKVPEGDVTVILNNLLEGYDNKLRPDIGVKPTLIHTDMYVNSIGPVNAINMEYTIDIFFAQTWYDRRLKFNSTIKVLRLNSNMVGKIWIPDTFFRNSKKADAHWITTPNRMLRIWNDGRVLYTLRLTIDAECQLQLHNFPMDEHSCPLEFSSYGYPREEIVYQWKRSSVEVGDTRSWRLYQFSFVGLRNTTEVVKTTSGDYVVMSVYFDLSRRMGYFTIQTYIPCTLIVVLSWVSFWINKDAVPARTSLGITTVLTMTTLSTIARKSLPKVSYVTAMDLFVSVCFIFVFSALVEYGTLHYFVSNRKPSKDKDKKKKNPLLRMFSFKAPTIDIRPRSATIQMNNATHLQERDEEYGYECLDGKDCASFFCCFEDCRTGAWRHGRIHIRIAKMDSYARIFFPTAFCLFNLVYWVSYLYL
T1 sequence (P31644 32-462): as the sequence (P31644 32-462) above
T1 sequence (P47870 25-512 partner limits assumed): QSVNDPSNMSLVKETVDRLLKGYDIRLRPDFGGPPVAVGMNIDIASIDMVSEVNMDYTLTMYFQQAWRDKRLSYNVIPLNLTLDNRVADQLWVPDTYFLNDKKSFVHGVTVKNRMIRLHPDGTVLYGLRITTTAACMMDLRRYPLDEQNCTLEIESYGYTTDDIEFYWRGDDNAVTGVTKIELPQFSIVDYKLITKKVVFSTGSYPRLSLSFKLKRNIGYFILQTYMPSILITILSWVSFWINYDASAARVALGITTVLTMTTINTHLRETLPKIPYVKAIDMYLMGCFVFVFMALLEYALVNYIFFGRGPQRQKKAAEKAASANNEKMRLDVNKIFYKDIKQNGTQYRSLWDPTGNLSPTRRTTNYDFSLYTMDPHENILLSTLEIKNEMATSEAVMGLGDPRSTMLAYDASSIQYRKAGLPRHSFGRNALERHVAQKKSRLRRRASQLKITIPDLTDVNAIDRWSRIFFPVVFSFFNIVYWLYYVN
T1 sequence (P18507 40-475): as the sequence (P18507 40-475) above

Row | activation at 0.1 µM (GABAA R (α5β2γ2); [1]) [%] | Ki (α5β3γ2 GABAA R; [2]) [µM] | Structure (SMILES) | activation at 0.1 µM (GABAA R (α5β2γ2); [3]) [%] | Ki (α5β3γ2 GABAA R) [µM]
1 | 5 to 20 | < 0.1 | CCOC(=O)c1ncn2c1Cc1cnoc1-c1cc(Cl)ccc1-2 [Compound 57] |  | 
2 | 20 to 50 | < 0.1 | CC(C)(C)C#Cc1ncn2c1Cc1cn[nH]c1-c1cc(Cl)ccc1-2 [Compound 63] |  | 
3 |  |  | Clc1ccc2c(c1)-c1[nH]ncc1Cc1c(C#Cc3cccnc3)ncn1-2 [Compound 64] | > 50 | < 0.1
4 |  |  | COc1ccc2c(c1)-c1[nH]ncc1Cc1c(C#CC(C)(C)C)ncn1-2 [Compound 73] | 5 to 20 | < 0.1
5 | 20 to 50 | < 0.1 | COc1ccc2c(c1)-c1nn(Cc3ccccc3)cc1Cc1c(-c3cnn(Cc4ccccc4)c3)ncn1-2 [Compound 76] |  | 
6 |  |  | CC(C)c1nc(-c2ncn3c2Cc2cn[nH]c2-c2cc(Cl)ccc2-3)no1 [Compound 84] | 5 to 20 | < 0.1
7 |  |  | FC(F)(F)c1nc(-c2ncn3c2Cc2cn[nH]c2-c2cc(Cl)ccc2-3)no1 [Compound 85] | 5 to 20 | < 0.1
8 |  |  | Cc1nc(-c2ncn3c2Cc2cn[nH]c2-c2cc(Cl)ccc2-3)no1 [Compound 86] | 5 to 20 | < 0.1
9 | 20 to 50 | < 0.1 | COc1ccc2c(c1)-c1[nH]ncc1Cc1c(-c3noc(C(F)(F)F)n3)ncn1-2 [Compound 87] |  | 
10 |  |  | COc1ccc2c(c1)-c1[nH]ncc1Cc1c(-c3noc(C)n3)ncn1-2 [Compound 88] | 5 to 20 | < 0.1
11 | 20 to 50 | < 0.1 | COc1ccc2c(c1)-c1[nH]ncc1Cc1c(C#Cc3ccccn3)ncn1-2 [Compound 90] |  | 
12 |  |  | COc1ccc2c(c1)-c1[nH]ncc1Cc1c(C#Cc3cccnc3)ncn1-2 [Compound 91] | 5 to 20 | < 0.1
13 | 5 to 20 | < 0.1 | Clc1ccc2c(c1)-c1[nH]ncc1Cc1c(-c3cnco3)ncn1-2 [Compound 93] |  | 
14 | 20 to 50 | < 0.1 | Clc1ccc2c(c1)-c1[nH]ncc1Cc1c(C#Cc3ccccn3)ncn1-2 [Compound 94] |  | 
15 | 5 to 20 | < 0.1 | CC(C)c1noc(-c2ncn3c2Cc2cn(Cc4ccccc4)nc2-c2cc(Cl)ccc2-3)n1 [Compound 96] |  | 
16 |  |  | CC(C)c1noc(-c2ncn3c2Cc2cn(Cc4ccncc4)nc2-c2cc(Cl)ccc2-3)n1 [Compound 97] | 5 to 20 | < 0.1
17 | 5 to 20 | < 0.1 | CC(C)c1noc(-c2ncn3c2Cc2cn(Cc4cccnc4)nc2-c2cc(Cl)ccc2-3)n1 [Compound 98] |  | 
18 |  |  | COc1ccc2c(c1)-c1[nH]ncc1Cc1c(-c3nc(C4CCOC4)no3)ncn1-2 (stereo not shown) [Compound 100] | 5 to 20 | < 0.1
19 |  |  | Cn1cc2c(n1)-c1cc(Cl)ccc1-n1cnc(C#CC(C)(C)C)c1C2 [Compound 101] | 20 to 50 | < 0.1
20 | 5 to 20 | < 0.1 | CC(C)c1noc(-c2ncn3c2Cc2cn(C)nc2-c2cc(Cl)ccc2-3)n1 [Compound 103] |  | 
21 | 5 to 20 | < 0.1 | CCn1cc2c(n1)-c1cc(Cl)ccc1-n1cnc(-c3nc(C(C)C)no3)c1C2 [Compound 104] |  | 
22 |  |  | Clc1ccc2c(c1)-c1[nH]ncc1Cc1c(-c3nc(C4CC4)no3)ncn1-2 [Compound 105] | 20 to 50 | < 0.1
23 |  |  | FC(F)(F)c1noc(-c2ncn3c2Cc2cn[nH]c2-c2cc(Cl)ccc2-3)n1 [Compound 106] | 20 to 50 | < 0.1
24 |  |  | Clc1ccc2c(c1)-c1[nH]ncc1Cc1c(-c3nc(C4CCOC4)no3)ncn1-2 (stereo not shown) [Compound 108] | 20 to 50 | < 0.1
25 | 20 to 50 | < 0.1 | COc1ccc2c(c1)-c1nn(C)cc1Cc1c(-c3noc(C(C)C)n3)ncn1-2 [Compound 109] |  | 
26 |  |  | COCCn1cc2c(n1)-c1cc(OC)ccc1-n1cnc(-c3noc(C(C)C)n3)c1C2 [Compound 110] | 20 to 50 | < 0.1
27 | 20 to 50 | < 0.1 | COCCn1cc2c(n1)-c1cc(Cl)ccc1-n1cnc(-c3nc(C(C)C)no3)c1C2 [Compound 111] |  | 
28 |  |  | CC(C)c1noc(-c2ncn3c2Cc2cn(CCN(C)C)nc2-c2cc(Cl)ccc2-3)n1 [Compound 112] | 5 to 20 | < 0.1

Row | activation at 0.1 µM (GABAA R (α5β2γ2); [1]) [%] | Ki (α5β3γ2 GABAA R; [2]) [µM] | Structure (SMILES) | activation at 0.1 µM (GABAA R (α5β2γ2); [3]) [%] | Ki (α5β3γ2 GABAA R) [µM]
29 |  |  | Cn1cc2c(n1)-c1cc(Cl)ccc1-n1cnc(-c3nc(C(C)(C)C)no3)c1C2 [Compound 113] | 20 to 50 | < 0.1
30 |  |  | COc1ccc2c(c1)-c1nn(C(C)C)cc1Cc1c(-c3noc(C(C)C)n3)ncn1-2 [Compound 114] | 20 to 50 | < 0.1
31 |  |  | Clc1ccc2c(c1)-c1[nH]ncc1Cc1c(-c3nc(C4CCCC4)no3)ncn1-2 [Compound 115] | 5 to 20 | < 0.1
32 |  |  | COc1ccc2c(c1)-c1nn(CC3CC3)cc1Cc1c(-c3nc(C(F)(F)F)no3)ncn1-2 [Compound 116] | 5 to 20 | < 0.1
33 |  |  | COc1ccc2c(c1)-c1nn(C)cc1Cc1c(-c3nc(C(C)(C)C)no3)ncn1-2 [Compound 118] | 20 to 50 | < 0.1
34 |  |  | COc1ccc2c(c1)-c1nn(C)cc1Cc1c(-c3nc(C(F)(F)F)no3)ncn1-2 [Compound 119] | 5 to 20 | < 0.1
35 | 20 to 50 | < 0.1 | COc1ccc2c(c1)-c1nn(C)cc1Cc1c(-c3nc(C4CC4)no3)ncn1-2 [Compound 120] |  | 
36 |  |  | Cc1noc(-c2ncn3c2Cc2cn(C)nc2-c2cc(Cl)ccc2-3)n1 [Compound 121] | 20 to 50 | < 0.1
37 |  |  | Cn1cc2c(n1)-c1cc(Cl)ccc1-n1cnc(-c3nc(C(F)(F)F)no3)c1C2 [Compound 122] | 5 to 20 | < 0.1
38 |  |  | Clc1ccc2c(c1)-c1[nH]ncc1Cc1c(-c3nc(C4CCCCC4)no3)ncn1-2 [Compound 123] | 5 to 20 | < 0.1
39 |  |  | COc1ccc2c(c1)-c1nn(Cc3ccccn3)cc1Cc1c(-c3nc(C(C)C)no3)ncn1-2 [Compound 124] | 20 to 50 | < 0.1
40 |  |  | COc1ccc2c(c1)-c1nn(Cc3cccnc3)cc1Cc1c(-c3nc(C(C)C)no3)ncn1-2 [Compound 125] | 20 to 50 | < 0.1
41 |  |  | COc1ccc2c(c1)-c1nn(C)cc1Cc1c(-c3nc(C4CCOC4)no3)ncn1-2 (stereo not shown) [Compound 126] | 20 to 50 | < 0.1
42 |  |  | Cn1cc2c(n1)-c1cc(Cl)ccc1-n1cnc(-c3nc(C4CC4)no3)c1C2 [Compound 127] | 20 to 50 | < 0.1
43 |  |  | COCCn1cc2c(n1)-c1cc(Cl)ccc1-n1cnc(-c3nc(C4CC4)no3)c1C2 [Compound 128] | 5 to 20 | < 0.1
44 |  |  | Clc1ccc2c(c1)-c1nn(CC3CC3)cc1Cc1c(-c3nc(C4CC4)no3)ncn1-2 [Compound 129] | 20 to 50 | < 0.1
45 |  |  | COc1ccc2c(c1)-c1nn(C)cc1Cc1c(-c3noc(C(F)(F)F)n3)ncn1-2 [Compound 130] | > 50 | < 0.1
46 |  |  | COc1ccc2c(c1)-c1nn(C)cc1Cc1c(-c3noc(C)n3)ncn1-2 [Compound 131] | 5 to 20 | < 0.1
47 | 20 to 50 | < 0.1 | COc1ccc2c(c1)-c1nn(C)cc1Cc1c(-c3noc(C4CC4)n3)ncn1-2 [Compound 132] |  | 
48 | 20 to 50 | < 0.1 | CCn1cc2c(n1)-c1cc(Cl)ccc1-n1cnc(-c3nc(C4CC4)no3)c1C2 [Compound 133] |  | 
49 |  |  | Cn1cc2c(n1)-c1cc(Cl)ccc1-n1cnc(-c3nc(C4CCOC4)no3)c1C2 (stereo not shown) [Compound 134] | 20 to 50 | < 0.1
50 |  |  | Clc1ccc2c(c1)-c1nn(Cc3ccccn3)cc1Cc1c(-c3nc(C4CC4)no3)ncn1-2 [Compound 135] | 5 to 20 | < 0.1
51 |  |  | COc1ccc2c(c1)-c1nn(C)cc1Cc1c(-c3noc(C4CCOC4)n3)ncn1-2 (stereo not shown) [Compound 136] | 20 to 50 | < 0.1
52 |  |  | CCOCc1nc(-c2ncn3c2Cc2cn(C)nc2-c2cc(OC)ccc2-3)no1 [Compound 137] | 20 to 50 | < 0.1
53 |  |  | CC(C)c1noc(-c2ncn3c2Cc2cn(C(C)C)nc2-c2cc(Cl)ccc2-3)n1 [Compound 138] | 20 to 50 | < 0.1
54 | 20 to 50 | < 0.1 | CCn1ncc2c1-c1cc(Cl)ccc1-n1cnc(-c3nc(C4CC4)no3)c1C2 [Compound 139] |  | 
55 |  |  | Cc1nc(-c2ncn3c2Cc2cn(C)nc2-c2cc(Cl)ccc2-3)no1 [Compound 140] | 5 to 20 | < 0.1

Row | Structure (SMILES) | activation at 0.1 µM (GABAA R (α5β2γ2); [1]) [%] | Ki (α5β3γ2 GABAA R; [2]) [µM] | activation at 0.1 µM (GABAA R (α5β2γ2); [3]) [%] | Ki (α5β3γ2 GABAA R) [µM]
56 | CC(C)c1noc(-c2ncn3c2Cc2cn(Cc4ccccn4)nc2-c2cc(Cl)ccc2-3)n1 [Compound 99] | 20 to 50 |  |  | < 0.1
